Experimental data reported in article PMC3376857 (2012).

Target: HDAC1 (Homo sapiens, UniProt Q13547)
Sequence (Q13547 whole entry): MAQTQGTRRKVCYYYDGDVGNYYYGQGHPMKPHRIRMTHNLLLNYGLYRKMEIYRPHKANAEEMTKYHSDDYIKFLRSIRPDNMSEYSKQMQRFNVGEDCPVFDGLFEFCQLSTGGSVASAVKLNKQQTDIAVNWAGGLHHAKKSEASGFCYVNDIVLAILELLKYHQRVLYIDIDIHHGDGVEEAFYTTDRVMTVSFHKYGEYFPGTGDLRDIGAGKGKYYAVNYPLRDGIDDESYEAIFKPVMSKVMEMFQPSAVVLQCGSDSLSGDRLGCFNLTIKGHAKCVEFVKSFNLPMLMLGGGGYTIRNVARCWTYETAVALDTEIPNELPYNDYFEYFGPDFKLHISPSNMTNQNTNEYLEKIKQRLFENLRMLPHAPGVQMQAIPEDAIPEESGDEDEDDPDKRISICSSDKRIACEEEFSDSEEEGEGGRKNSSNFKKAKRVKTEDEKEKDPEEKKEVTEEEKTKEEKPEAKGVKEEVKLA

## CC(/C=C/C(=O)NO)=C\[C@@H](C)C(=O)c1ccc(N(C)C)cc1 [TSA, trichostatin A]
  deacetylase assay with immunopurified Flag-HDAC1 and acetylated p53 protein: 1 µM
